{"source": "patent US8623859B2", "about": "“Bradykinin B1 antagonists” (Evotec AG, priority 2008, dated 2014)", "note": "Counter-ions that a name gives are not always drawn.", "data": [{"target": "T1, human B1 (Homo sapiens, UniProt P46663)", "T1 construct": "host or cells: CHO-K1", "T1 sequence (P46663 1-353)": "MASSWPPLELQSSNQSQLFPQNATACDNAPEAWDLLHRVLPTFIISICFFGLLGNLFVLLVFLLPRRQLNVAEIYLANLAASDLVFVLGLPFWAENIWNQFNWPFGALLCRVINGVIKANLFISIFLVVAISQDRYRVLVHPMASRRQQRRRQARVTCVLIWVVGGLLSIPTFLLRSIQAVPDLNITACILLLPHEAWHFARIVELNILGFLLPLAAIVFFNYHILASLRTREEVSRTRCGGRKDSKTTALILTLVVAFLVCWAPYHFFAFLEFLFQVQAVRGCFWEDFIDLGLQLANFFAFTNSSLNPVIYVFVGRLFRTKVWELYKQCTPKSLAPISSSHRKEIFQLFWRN", "test": "Calcium flux assay for Bradykinin B1 antagonist, CHO-K1 cell line expressing human B1", "type": "cell-based", "conditions": "CHO-K1 cells expressing human B1, agonist Lys-(Des-Arg)-Bradykinin, read-out: Potency (IC50 value against human B1)", "how_it_was_run": "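Inhibition of B1 agonist-evoked intracellular Ca2+ rise was followed by continuous fluorescence at 538 nm, with integrated, background-normalized signals plotted versus log compound concentration. Test compounds (eight 10-fold dilutions, triplicate, 1% DMSO final) were added 30 min at 25° C beforehand to Fluo-4AM-loaded human B1 CHO-K1 cells in pH 7.4 assay buffer.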", "units": {"IC50": "nM"}, "values": [{"smiles": "COc1cc(C)c(S(=O)(=O)N(Cc2cc(C(=O)N(C)Cc3ccc(CN4CCC(C(=O)N(C)C)C4)cc3)co2)C2CC2)c(C)c1", "note": "(centres unmarked) [Ex 147, 1-(4-{[{[5-({Cyclopropyl[(4-methoxy-2,6-dimethylphenyl)sulfonyl]amino}methyl)furan-3-yl]carbonyl}(methyl)amino]methyl}benzyl)-N,N-dimethylpyrrolidine-3-carboxamide]", "IC50": "10 to 100"}, {"smiles": "COc1cc(C)c(S(=O)(=O)N(Cc2cc(C(=O)N(C)Cc3ccc(CN4CC(O)C4)cc3)co2)C2CC2)c(C)c1", "note": "[Ex 148, 5-({Cyclopropyl[(4-methoxy-2,6-dimethylphenyl)sulfonyl]amino}methyl)-N-{4-[(3-hydroxyazetidin-1-yl)methyl]benzyl}-N-methylfuran-3-carboxamide]", "IC50": "10 to 100"}, {"smiles": "COc1cc(C)c(S(=O)(=O)N(Cc2cc(C(=O)N(C)Cc3ccc(CN4CC(OC)C4)cc3)co2)C2CC2)c(C)c1", "note": "[Ex 149, 5-({Cyclopropyl[(4-methoxy-2,6-dimethylphenyl)sulfonyl]amino}methyl)-N-{4-[(3-methoxyazetidin-1-yl)methyl]benzyl}-N-methylfuran-3-carboxamide]", "IC50": "100 to 1000"}, {"smiles": "CCN(Cc1ccc(CN2CCCC2)cc1)C(=O)c1coc(CN(C)S(=O)(=O)c2c(C)cc(OC)cc2C)c1", "note": "[Ex 150, N-Ethyl-5-({[(4-methoxy-2,6-dimethylphenyl)sulfonyl](methyl)amino}methyl)-N-[4-(pyrrolidin-1-ylmethyl)benzyl]furan-3-carboxamide trifluoroacetate]", "IC50": "10 to 100"}, {"smiles": "COc1cc(C)c(S(=O)(=O)N(C)Cc2cc(C(=O)NCc3cc(CN4CCCC4)ccc3F)co2)c(C)c1", "note": "[Ex 151, N-[2-Fluoro-5-(pyrrolidin-1-ylmethyl)benzyl]-5-({[(4-methoxy-2,6-dimethylphenyl)sulfonyl](methyl)amino}methyl)furan-3-carboxamide trifluoroacetate]", "IC50": "100 to 1000"}, {"smiles": "COc1cc(C)c(S(=O)(=O)N(C)Cc2cc(C(=O)NCc3ccc(CN4CCCC4)c(F)c3)co2)c(C)c1", "note": "[Ex 152, N-[3-Fluoro-4-(pyrrolidin-1-ylmethyl)benzyl]-5-({[(4-methoxy-2,6-dimethylphenyl)sulfonyl](methyl)amino}methyl)furan-3-carboxamide trifluoroacetate]", "IC50": "100 to 1000"}, {"smiles": "COc1cc(C)c(S(=O)(=O)N(Cc2cc(C(=O)NCc3cc(CN4CCCC4)ccc3F)co2)C2CC2)c(C)c1", "note": "[Ex 153, 5-({Cyclopropyl[(4-methoxy-2,6-dimethylphenyl)sulfonyl]amino}methyl)-N-[2-fluoro-5-(pyrrolidin-1-ylmethyl)benzyl]furan-3-carboxamide trifluoroacetate]", "IC50": "100 to 1000"}, {"smiles": "COc1cc(C)c(S(=O)(=O)N(Cc2cc(C(=O)NCc3ccc(CN4CCCC4)c(F)c3)co2)C2CC2)c(C)c1", "note": "[Ex 154, 5-({Cyclopropyl[(4-methoxy-2,6-dimethylphenyl)sulfonyl]amino}methyl)-N-[3-fluoro-4-(pyrrolidin-1-ylmethyl)benzyl]furan-3-carboxamide trifluoroacetate]", "IC50": "100 to 1000"}, {"smiles": "COc1cc(C)c(S(=O)(=O)N(C)Cc2cc(C(=O)NCc3cc(F)cc(CN4CCCC4)c3)co2)c(C)c1", "note": "[Ex 155, N-[3-Fluoro-5-(pyrrolidin-1-ylmethyl)benzyl]-5-({[(4-methoxy-2,6-dimethylphenyl)sulfonyl](methyl)amino}methyl)furan-3-carboxamide trifluoroacetate]", "IC50": "10 to 100"}, {"smiles": "COc1cc(C)c(S(=O)(=O)N(C)Cc2cc(C(=O)N(C)Cc3cc(CN4CCCC4)ccc3F)co2)c(C)c1", "note": "[Ex 156, N-[2-Fluoro-5-(pyrrolidin-1-ylmethyl)benzyl]-5-({[(4-methoxy-2,6-dimethylphenyl)sulfonyl](methyl)amino}methyl)-N-methylfuran-3-carboxamide trifluoroacetate]", "IC50": "10 to 100"}, {"smiles": "COc1cc(C)c(S(=O)(=O)N(C)Cc2cc(C(=O)N(C)Cc3ccc(CN4CCCC4)c(F)c3)co2)c(C)c1", "note": "[Ex 157, N-[3-Fluoro-4-(pyrrolidin-1-ylmethyl)benzyl]-5-({[(4-methoxy-2,6-dimethylphenyl)sulfonyl](methyl)amino}methyl)-N-methylfuran-3-carboxamide trifluoroacetate]", "IC50": "10 to 100"}, {"smiles": "COc1cc(C)c(S(=O)(=O)N(C)Cc2cc(C(=O)N(C)Cc3cc(F)cc(CN4CCCC4)c3)co2)c(C)c1", "note": "[Ex 158, N-[3-Fluoro-5-(pyrrolidin-1-ylmethyl)benzyl]-5-({[(4-methoxy-2,6-dimethylphenyl)sulfonyl](methyl)amino}methyl)-N-methylfuran-3-carboxamide trifluoroacetate]", "IC50": "10 to 100"}, {"smiles": "COc1cc(C)c(S(=O)(=O)N(C)Cc2nc(C(=O)N(C)Cc3ccc(C[N+]4([O-])CCCC4)cc3)co2)c(C)c1", "note": "[Ex 159, 2-({[(4-Methoxy-2,6-dimethylphenyl)sulfonyl](methyl)amino}methyl)-N-methyl-N-{4-[(1-oxidopyrrolidin-1-yl)methyl]benzyl}-1,3-oxazole-4-carboxamide trifluoroacetate]", "IC50": "100 to 1000"}, {"smiles": "COc1cc(C)c(S(=O)(=O)N(Cc2nc(C(=O)NCCC3CCCNC3)co2)C2CC2)c(C)c1", "note": "(centres unmarked) [Ex 159a, 2-({Cyclopropyl[(4-methoxy-2,6-dimethylphenyl)sulfonyl]amino}methyl)-N-(2-piperidin-3-ylethyl)-1,3-oxazole-4-carboxamide]", "IC50": "100 to 1000"}, {"smiles": "COc1cc(C)c(S(=O)(=O)N(Cc2nc(C(=O)N(C)Cc3csc(CN4CCCC4)n3)co2)C2CC2)c(C)c1", "note": "[Ex 160, 2-({Cyclopropyl[(4-methoxy-2,6-dimethylphenyl)sulfonyl]amino}methyl)-N-methyl-N-{[2-(pyrrolidin-1-ylmethyl)-1,3-thiazol-4-yl]methyl}-1,3-oxazole-4-carboxamide]", "IC50": "10 to 100"}, {"smiles": "COc1cc(C)c(S(=O)(=O)N(Cc2nc(C(=O)N3CCN(c4ccncc4)CC3)co2)C2CC2)c(C)c1", "note": "[Ex 161, N-Cyclopropyl-4-methoxy-2,6-dimethyl-N-({4-[(4-pyridin-4-ylpiperazin-1-yl)carbonyl]-1,3-oxazol-2-yl}methyl)benzenesulfonamide trifluoroacetate]", "IC50": "100 to 1000"}, {"smiles": "COc1cc(C)c(S(=O)(=O)N(Cc2nc(C(=O)N3CCN(Cc4ccncc4)CC3)co2)C2CC2)c(C)c1", "note": "[Ex 162, N-Cyclopropyl-4-methoxy-2,6-dimethyl-N-[(4-{[4-(pyridin-4-ylmethyl)piperazin-1-yl]carbonyl}-1,3-oxazol-2-yl)methyl]benzenesulfonamide trifluoroacetate]", "IC50": "< 10"}, {"smiles": "COc1cc(C)c(S(=O)(=O)N(Cc2nc(C(=O)N3CCN(Cc4cccnc4)CC3)co2)C2CC2)c(C)c1", "note": "[Ex 163, N-Cyclopropyl-4-methoxy-2,6-dimethyl-N-[(4-{[4-(pyridin-3-ylmethyl)piperazin-1-yl]carbonyl}-1,3-oxazol-2-yl)methyl]benzenesulfonamide trifluoroacetate]", "IC50": "< 10"}, {"smiles": "COc1cc(C)c(S(=O)(=O)N(C)Cc2nc(C(=O)N3CCN(CCN4CCCC4)CC3)co2)c(C)c1", "note": "[Ex 164, 4-Methoxy-N,2,6-trimethyl-N-[(4-{[4-(2-pyrrolidin-1-ylethyl)piperazin-1-yl]carbonyl}-1,3-oxazol-2-yl)methyl]benzenesulfonamide]", "IC50": "100 to 1000"}, {"smiles": "COc1cc(C)c(S(=O)(=O)N(Cc2nc(C(=O)N3CCN(C4CCN(C)CC4)CC3)co2)C2CC2)c(C)c1", "note": "[Ex 165, N-Cyclopropyl-4-methoxy-2,6-dimethyl-N-[(4-{[4-(1-methylpiperidin-4-yl)piperazin-1-yl]carbonyl}-1,3-oxazol-2-yl)methyl]benzenesulfonamide]", "IC50": "< 10"}]}]}
